Test results as given in PubChem BioAssay (NCI).
Where “and” joins values, the source holds several entries; their conditions need not be identical. Identical values can stand only once.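 Following 48 hours of exposure in 96-well plates, responses at five concentrations were used to interpolate endpoints linearly. The concentration for 50% growth inhibition is given as GI50. The concentration for full growth arrest is given as TGI.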

Experiments:
Assay in all cases: growth of human tumour cells (NCI), 48 h
IGROV1 ovarian = tested on: IGROV1 ovarian
NCI-H23 lung = tested on: NCI-H23 lung
HS 578T breast = tested on: HS 578T breast
MDA-MB-231 breast = tested on: MDA-MB-231 breast
HOP-92 NSCLC = tested on: HOP-92 NSCLC
UACC-62 melanoma = tested on: UACC-62 melanoma
OVCAR-8 ovarian = tested on: OVCAR-8 ovarian
OVCAR-5 ovarian = tested on: OVCAR-5 ovarian
HT29 colon = tested on: HT29 colon
CCRF-CEM leukemia = tested on: CCRF-CEM leukemia

| Compound | GI50 (IGROV1 ovarian) | TGI (IGROV1 ovarian) | GI50 (NCI-H23 lung) | TGI (NCI-H23 lung) | GI50 (HS 578T breast) | TGI (HS 578T breast) | GI50 (MDA-MB-231 breast) | TGI (MDA-MB-231 breast) | GI50 (HOP-92 NSCLC) | TGI (HOP-92 NSCLC) | GI50 (UACC-62 melanoma) | TGI (UACC-62 melanoma) | GI50 (OVCAR-8 ovarian) | TGI (OVCAR-8 ovarian) | GI50 (OVCAR-5 ovarian) | TGI (OVCAR-5 ovarian) | GI50 (HT29 colon) | TGI (HT29 colon) | GI50 (CCRF-CEM leukemia) | TGI (CCRF-CEM leukemia) |
| --- | --- | --- | --- | --- | --- | --- | --- | --- | --- | --- | --- | --- | --- | --- | --- | --- | --- | --- | --- | --- |
| CC(C)c1c(C(=O)Nc2ccccc2)c(-c2ccccc2)c(-c2ccc(F)cc2)n1CC[C@@H](O)C[C@@H](O)CC(=O)O | 22.2 µM | > 100 µM | 31 µM | > 100 µM | 15.6 µM | > 100 µM | 1.61 µM | 6.63 µM | 0.211 µM | 2.14 µM | 6.59 µM | 51.5 µM | 20.4 µM | > 100 µM | 57.2 µM | > 100 µM | 50.3 µM | > 100 µM | 21.4 µM | > 100 µM |
| O=C1Nc2ccc(I)cc2/C1=C/c1cc(Br)c(O)c(Br)c1 | > 25 µM and 27.8 µM | > 75.5 µM | > 17 µM and 18.1 µM | > 25 µM and 55 µM | > 17.9 µM and 21.3 µM | > 80.4 µM | > 20.4 µM and 16.1 µM | > 25 µM and 44.2 µM | 15.6 µM | 54.7 µM | 11.5 µM and 8.43 µM | > 25 µM and 29.6 µM | > 25 µM and 23.8 µM | > 96.5 µM | > 25 µM and 21.5 µM | > 25 µM and 51.7 µM | > 20.6 µM and 13.5 µM | > 25 µM and 52.5 µM | > 18.5 µM and 6.24 µM | > 25 µM and 51.3 µM |
| COc1cccc(-c2cc(-c3ccc(Nc4nc(Nc5ccc(Cl)cc5)nc(Nc5ccc(Cl)cc5)n4)cc3)nc(N)c2C#N)c1 | 1.67 µM | 4.62 µM | 3.59 µM | > 54 µM | 2.66 µM | 11.2 µM | 1.74 µM | 5.43 µM | 1.1 µM | 3.41 µM | 14.6 µM | 37.8 µM | 3.51 µM | > 100 µM | 3.3 µM | 15.1 µM | 3.96 µM | 35.8 µM | 1.91 µM | 11.5 µM |
| FC(F)(F)c1ccc(-c2cnc(-c3nn[nH]n3)nc2NC2CCCCCC2)cc1 | > 10 µM | > 10 µM | > 10 µM | > 10 µM | > 10 µM | > 10 µM | > 10 µM | > 10 µM | > 10 µM | > 10 µM | > 10 µM | > 10 µM | > 10 µM | > 10 µM | > 10 µM | > 10 µM | > 10 µM | > 10 µM | > 10 µM | > 10 µM |
| Cc1ccc(CNc2ccc(Cl)cc2NCc2ccc(C)c(O)c2)cc1O | 8.66 µM | 18 µM | 7.33 µM | 14.8 µM | 7.73 µM | 24.6 µM | 5.63 µM | 12.9 µM | 6.91 µM | 14.2 µM | 7.55 µM | 14.5 µM | 8.66 µM | 18.4 µM | 8.32 µM | 16.2 µM | 9.73 µM | 17.9 µM | 5.02 µM | 17.2 µM |
| Cc1cc(C)c(CNC(=O)c2cc(Cl)c3c(c2C)O[C@@](C)(C2CCC(N(C)C)CC2)O3)c(=O)[nH]1 (stereo not given in full) | 70.5 µM | > 100 µM | 75.6 µM | > 100 µM | 32.5 µM | > 100 µM | 59.5 µM | > 100 µM | 18.4 µM | > 100 µM | > 100 µM | > 100 µM | > 100 µM | > 100 µM | > 100 µM | > 100 µM | 33.8 µM | > 100 µM | 49.9 µM | > 100 µM |
| Nc1nc(N)c2nc(CNc3ccc(C(=O)NC(CCC(=O)O)C(=O)O)cc3)cnc2n1 (stereo not given) | 0.0651 µM and < 0.01 µM | > 100 µM | 0.0604 µM and 0.0213 µM | > 100 µM | > 100 µM | > 100 µM | > 23.1 µM and 6.99 µM | > 100 µM | > 100 µM | > 100 µM | 0.0274 µM and < 0.01 µM | > 100 µM | < 0.01 µM | > 100 µM | 0.0373 µM and 0.0307 µM | > 100 µM | < 0.01 µM | > 100 µM | < 0.01 µM | > 100 µM |
| CC(C)OC(=O)OCOP(=O)(OCOC(=O)OC(C)C)C1CCCN(O)C1=O (stereo not given) | 0.565 µM | 12.6 µM | 8.47 µM | > 100 µM | 0.586 µM | 6.56 µM | 0.632 µM | > 100 µM | 0.566 µM | 7.91 µM | 0.704 µM | 3.29 µM | 0.619 µM | > 100 µM | 5.25 µM | > 100 µM | 0.571 µM | > 100 µM | 0.446 µM | > 100 µM |
| COc1ccc(-c2cc(-c3ccc(Cl)cc3)c(C#N)c(=O)n2CCCCCC(=O)Nc2ccccc2N)cc1 | 4.22 µM | > 100 µM | 6.04 µM | 27.3 µM | 3.06 µM | 29.7 µM | 7.12 µM | > 100 µM | 1.96 µM | 9.93 µM | 2.4 µM | 8.56 µM | 4.31 µM | > 100 µM | 10.9 µM | > 100 µM | 3.56 µM | > 100 µM | 4.84 µM | > 100 µM |
| CCN(CC)CCN1C(=O)c2cccc3cc(N)cc(c23)C1=O |  | > 100 µM |  | 20.3 µM |  | > 100 µM |  | 51.9 µM |  | > 100 µM |  | 24.6 µM |  | > 100 µM |  | 15.7 µM |  | 18.1 µM |  | > 100 µM |
| CN(C)CCCn1c2c(c3ccc(N4CCNCC4)cc3c1=O)C(=O)c1ccccc1-2 | 0.844 µM | 3.73 µM | 1.05 µM | 2.64 µM | 1.44 µM | 4.38 µM | 0.505 µM | 2.05 µM | 1.72 µM | 6.53 µM | 1.03 µM | 2.52 µM | 0.403 µM | 1.99 µM | 2.12 µM | 5.57 µM | 0.351 µM | 1.9 µM | 0.335 µM | 1.94 µM |
| CCCN1CCCC(c2ccc(Nc3nc(Nc4cc(F)ccc4C(N)=O)c4cc[nH]c4n3)c(OC)c2)C1 (stereo not given) | 1.47 µM | 6.12 µM | 1.5 µM | 5.95 µM | 3.41 µM | 12.3 µM | 3.28 µM | 7.7 µM | 0.013 µM | 1.39 µM | 3.11 µM | 6.31 µM | 2.47 µM | 5.92 µM | 0.556 µM | 5.36 µM | 0.0108 µM | 3.15 µM | 1.55 µM | 18.4 µM |
